Test results: ChEMBL document CHEMBL1201862, “PubChem BioAssay data set” (2004)
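A five-concentration, 48-hour dose response in 96-well plates underlies each endpoint, interpolated linearly between surrounding concentrations. GI50 marks 50% less growth.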 Activity calls are given as the source filed them. Cut-off read from the data, not from the text of the source: active = GI50 up to about 1.1 µM and inactive = higher.

Experiments:
Assay in all cases: NCI-60 cell line screen, 48 h
A498 = test system: A498
CCRF-CEM = test system: CCRF-CEM
HL-60 = test system: HL-60
HOP-62 = test system: HOP-62
Hs-578T = test system: Hs-578T
IGROV-1 = test system: IGROV-1
MDA-MB-231 = test system: MDA-MB-231
MDA-N = test system: MDA-N
OVCAR-3 = test system: OVCAR-3
OVCAR-5 = test system: OVCAR-5
OVCAR-8 = test system: OVCAR-8
PC-3 = test system: PC-3
SK-MEL-2 = test system: SK-MEL-2
SK-MEL-5 = test system: SK-MEL-5
SK-OV-3 = test system: SK-OV-3
SNB-75 = test system: SNB-75
SW-620 = test system: SW-620
T47D = test system: T47D
U-251 = test system: U-251
UO-31 = test system: UO-31

Row | SMILES | GI50 (A498) | GI50 (CCRF-CEM) | GI50 (HL-60) | GI50 (HOP-62) | GI50 (Hs-578T) | GI50 (IGROV-1) | GI50 (MDA-MB-231) | GI50 (MDA-N) | GI50 (OVCAR-3) | GI50 (OVCAR-5) | GI50 (OVCAR-8) | GI50 (PC-3) | GI50 (SK-MEL-2) | GI50 (SK-MEL-5) | GI50 (SK-OV-3) | GI50 (SNB-75) | GI50 (SW-620) | GI50 (T47D) | GI50 (U-251) | GI50 (UO-31)
1 | CN(C)CCNC(=O)c1ccc(NCCCN(C)CCCNc2ccc(C(=O)NCCN(C)C)c3nc4ccc([N+](=O)[O-])cc4c(O)c23)c2c(O)c3cc([N+](=O)[O-])ccc3nc12 | 0.116 µM (active) | < 0.01 µM (active) | 0.0277 µM (active) | 0.154 µM (active) | 0.0798 µM (active) | < 0.01 µM (active) | 0.05 µM (active) | 0.155 µM (active) | 0.186 µM (active) | 0.158 µM (active) | < 0.01 µM (active) | < 0.01 µM (active) | 0.0111 µM (active) | 0.0346 µM (active) | 0.232 µM (active) | 0.14 µM (active) | < 0.01 µM (active) | 0.32 µM (active) | < 0.01 µM (active) | 0.154 µM (active)
2 | CCCCCCCCCCCCCCCC(=O)OCC(C[As](=O)(O)O)OC(=O)CCCCCCCCCCCCCCC (centres undefined) | > 100 µM (inactive) | > 100 µM (inactive) | > 100 µM (inactive) | > 70.3 µM (inactive) | 58.5 µM (inactive) | > 100 µM (inactive) | > 100 µM (inactive) | > 100 µM (inactive) | > 100 µM (inactive) | > 100 µM (inactive) | > 100 µM (inactive) | > 100 µM (inactive) | > 100 µM (inactive) | > 100 µM (inactive) | > 58.2 µM (inactive) | 33 µM (inactive) | > 50.9 µM (inactive) | > 100 µM (inactive) | > 65.6 µM (inactive) | > 100 µM (inactive)
3 | OC1(c2ccc(Cl)cc2)c2ccc(CN3CCCC3)cc2C2=NCCN21 (centres undefined) | 13.1 µM (inactive) | 12.2 µM (inactive) | 12.6 µM (inactive) | 15.6 µM (inactive) | 12.3 µM (inactive) | 14.5 µM (inactive) | 13.9 µM (inactive) | 10.8 µM (inactive) | 16.1 µM (inactive) | 16.7 µM (inactive) | 15.4 µM (inactive) | 13.3 µM (inactive) | 19 µM (inactive) | 10.5 µM (inactive) | 14.2 µM (inactive) | 3.16 µM (inactive) | 13.3 µM (inactive) | 18.5 µM (inactive) | 14 µM (inactive) | 14.1 µM (inactive)
4 | O=c1ccn(C/C=C/c2ccccc2)c(=S)n1C/C=C/c1ccccc1 | > 100 µM (inactive) | 18.4 µM (inactive) | 13.8 µM (inactive) | > 100 µM (inactive) | > 100 µM (inactive) | > 100 µM (inactive) | > 100 µM (inactive) | 47.4 µM (inactive) | > 100 µM (inactive) | > 100 µM (inactive) | > 100 µM (inactive) | 56.4 µM (inactive) | > 100 µM (inactive) | 35.2 µM (inactive) | > 100 µM (inactive) | > 100 µM (inactive) | > 100 µM (inactive) | 20.9 µM (inactive) | 77.1 µM (inactive) | 76 µM (inactive)
5 | CC(C)=CCC[C@]1(C)CC[C@]2(C)C3CCC(=C(C)C)[C@@H](CCCO)[C@]3(C)CC[C@@]2(C)C1 (some centres undefined) | > 100 µM (inactive) | 36.9 µM (inactive) | 33.8 µM (inactive) | 88.5 µM (inactive) | > 100 µM (inactive) | 18.8 µM (inactive) | 29.8 µM (inactive) | 89.3 µM (inactive) | 47.1 µM (inactive) | 59.4 µM (inactive) | 30.5 µM (inactive) | 35.1 µM (inactive) | 18.8 µM (inactive) | > 100 µM (inactive) | > 100 µM (inactive) | 0.0243 µM (active) | 53.8 µM (inactive) | 4.92 µM (inactive) | 23.6 µM (inactive) | 16.9 µM (inactive)
6 | COC1CCC(O)C(/C=C/[N+](=O)[O-])C1 (centres undefined) | 3.99 µM (inactive) | 2.69 µM (inactive) | 1.8 µM (inactive) | 5.41 µM (inactive) | 2.99 µM (inactive) | 1.66 µM (inactive) | 4.82 µM (inactive) | 1.99 µM (inactive) | 8.3 µM (inactive) | 9.1 µM (inactive) | 1.95 µM (inactive) | 2.06 µM (inactive) | 10.2 µM (inactive) | 4.06 µM (inactive) | 10.1 µM (inactive) | 9.68 µM (inactive) | 3.33 µM (inactive) | 11.3 µM (inactive) | 2.19 µM (inactive) | 1.81 µM (inactive)
7 | C=C(CO[Si](C)(C)C(C)(C)C)C(C)=O | > 100 µM (inactive) | 0.678 µM (active) | 13.8 µM (inactive) | > 100 µM (inactive) | 25.8 µM (inactive) | 25.5 µM (inactive) | 20.3 µM (inactive) | 15.3 µM (inactive) | 20.4 µM (inactive) | 31 µM (inactive) | 18.8 µM (inactive) | 26.9 µM (inactive) | 20.5 µM (inactive) | 14.6 µM (inactive) | > 89.3 µM (inactive) | 20 µM (inactive) | 8.15 µM (inactive) | 21.6 µM (inactive) | > 63.2 µM (inactive) | > 46.9 µM (inactive)
8 | CC1(C)CC(=O)C(C(c2cccc(O)c2O)C2C(=O)CC(C)(C)CC2=O)C(=O)C1 | > 100 µM (inactive) | 20.1 µM (inactive) | < 0.01 µM (active) | > 100 µM (inactive) | 74.5 µM (inactive) | 43.9 µM (inactive) | > 100 µM (inactive) | > 100 µM (inactive) | 97.7 µM (inactive) | > 100 µM (inactive) | 81.7 µM (inactive) | > 100 µM (inactive) | 76.6 µM (inactive) | > 100 µM (inactive) | > 100 µM (inactive) | > 100 µM (inactive) | > 100 µM (inactive) | 91.2 µM (inactive) | > 100 µM (inactive) | –
9 | Cc1cc(/N=C2\C=C(Nc3cc(C)on3)C(=O)c3ccccc32)no1 | > 100 µM (inactive) | > 100 µM (inactive) | > 100 µM (inactive) | > 61.1 µM (inactive) | 13.2 µM (inactive) | 33.1 µM (inactive) | 12.9 µM (inactive) | 1.96 µM (inactive) | > 100 µM (inactive) | > 76 µM (inactive) | 37.3 µM (inactive) | > 100 µM (inactive) | 17.1 µM (inactive) | 1.82 µM (inactive) | 77.8 µM (inactive) | 31.6 µM (inactive) | > 100 µM (inactive) | 47.3 µM (inactive) | 30.1 µM (inactive) | 43.7 µM (inactive)
10 | CC1OC(OC2CC(O)(C(=O)CO)Cc3c(O)c4c(c(O)c32)C(=O)c2ccccc2C4=O)CC(N)C1O (centres undefined) | < 0.01 µM (active) | < 0.01 µM (active) | < 0.01 µM (active) | < 0.01 µM (active) | 0.0206 µM (active) | 0.12 µM (active) | 0.431 µM (active) | 0.0652 µM (active) | 0.106 µM (active) | 0.0242 µM (active) | 0.0171 µM (active) | 0.0301 µM (active) | 0.0387 µM (active) | < 0.0105 µM (active) | 0.0109 µM (active) | < 0.0137 µM (active) | < 0.01 µM (active) | < 0.01 µM (active) | < 0.01 µM (active) | 0.0232 µM (active)
11 | COCC1OC(OC2OCC3OC4(OCC(O)(C(C)OC)C5OCOC54)OC3C2OC)C(OC)C(O)C1OC1OC(C)C(OC)C(OC2OC(C)C3OC4(CC(O)C(OC5CC(OC6CC(C)([N+](=O)[O-])C(OC)C(C)O6)C(OC(=O)c6c(C)c(Cl)c(O)c(Cl)c6OC)C(C)O5)C(C)O4)OC3(C)C2O)C1O (centres undefined) | > 100 µM (inactive) | > 100 µM (inactive) | > 100 µM (inactive) | > 100 µM (inactive) | > 100 µM (inactive) | > 100 µM (inactive) | > 100 µM (inactive) | > 100 µM (inactive) | > 100 µM (inactive) | > 100 µM (inactive) | > 100 µM (inactive) | > 100 µM (inactive) | > 100 µM (inactive) | > 100 µM (inactive) | > 100 µM (inactive) | > 100 µM (inactive) | > 100 µM (inactive) | > 100 µM (inactive) | > 100 µM (inactive) | > 100 µM (inactive)
12 | COc1cc(-c2oc3ccccc3c(=O)c2O)cc(OC)c1OC | 22 µM (inactive) | 3.32 µM (inactive) | 7.08 µM (inactive) | 6.04 µM (inactive) | 8.22 µM (inactive) | 6.9 µM (inactive) | 42.4 µM (inactive) | > 26.1 µM (inactive) | 4.28 µM (inactive) | > 100 µM (inactive) | 9.66 µM (inactive) | 11.3 µM (inactive) | > 100 µM (inactive) | 6.58 µM (inactive) | 43.4 µM (inactive) | 6.82 µM (inactive) | > 80.2 µM (inactive) | 6 µM (inactive) | 8.77 µM (inactive) | 4.63 µM (inactive)
13 | COc1ccccc1C[C@@H]1OC2(C=CC(=O)CC2SC(=O)c2ccccc2)O[C@H]1Cc1ccccc1OC (some centres undefined) | 2.46 µM (inactive) | 0.294 µM (active) | 1.16 µM (inactive) | 1.35 µM (inactive) | 1.25 µM (inactive) | 1.42 µM (inactive) | 2.64 µM (inactive) | 1.51 µM (inactive) | 1.59 µM (inactive) | 1.19 µM (inactive) | 0.216 µM (active) | 1.88 µM (inactive) | 1.71 µM (inactive) | 1.62 µM (inactive) | 2.17 µM (inactive) | 1.78 µM (inactive) | 0.324 µM (active) | 1.6 µM (inactive) | 1.44 µM (inactive) | 1.28 µM (inactive)
